Data on 16 compounds can be found in PMC9019904, “AD Informer Set: Chemical tools to facilitate Alzheimer's disease drug discovery” (Alzheimer's & Dementia : Translational Research & Clinical …, 2022).

Series [1] concerns HMC3 (human microglia) cell line. Put plainly: pHrodo-myelin phagocytosis/cell viability high content imaging assay: phagocytosis signal. Type of series: cell-based. Here is the method:
(§1) It is important to note that stressed cells, such as those that are dying, are prone to show an increase in phagocytosis. […] MerTK promotes phagocytosis and thus MerTK inhibition is proposed to lead to inhibition of phagocytosis.[47]
(§2) phagocytosis and cell viability simultaneously. High content imaging is performed with the
(§3) (approximately 22 hours after pHrodo-myelin addition). Three measurements are extracted
(§4) intensity increase (early apoptosis) and decrease (later apoptosis), respectively. These
and 3). […]

Series [2] relates to BV2 (mouse microglia) cell line. The description is as above. Type of series: cell-based. Here is the method:
as §1, §2, §3, §4
and 3). […]

The test system of series [3] is HMC3 (human microglia) cell line. Put plainly: pHrodo-myelin phagocytosis/cell viability high content imaging assay: viability (cell count, nuclear area, nuclear intensity). The conditions noted are these: for 1. Cell count (% control) / 2. Nuclear Area (% Control) / 3. Nuclear DNA Intensity (% control): 48 hours treatment. Here is the method:
(§5) All AD Informer Set compounds were tested in two immortalized microglial cell lines, murine (BV2), and human (HMC3), in a high‐content imaging assay in duplicate by the Chu lab. Experimental details and all data can be found as supporting information files.
(§6) The role of microglia in AD has been well documented and was thus chosen as a cell type in which to profile the AD Informer Set.[43], [44], [45] As an example, neuroinflammation, as detected by the presence of activated complement proteins, interleukins, cytokines, and chemokines in microglia and astrocytes, is increased early in AD and is considered pathogenic due to its chronic nature.[33], [34] Cytotoxic effects can be assessed by considering multiple parameters.
(§7) Microglial viability and phagocytosis studies: The pHrodo-myelin phagocytosis/cell viability assay, modified based on a published method, was run with immortalized BV2 (mouse microglia) and HMC3 (human microglia) cell lines in the Chu lab at IUSM. The 384-well plate high content analysis assay with BV2 and HMC3 microglial cell lines is used to quantify both phagocytosis and cell viability simultaneously. High content imaging is performed with the ArrayScan automatic imaging system and imaging analysis done with the software on the system. After allowing cells to adhere overnight, they are treated with compounds for total 48 hours including final 20 hours seeded with pHrodo-myelin (labeled phagocytosis ligand, purified […]
(§8) (approximately 22 hours after pHrodo-myelin addition). Three measurements are extracted from the assay: 1) phagocytosis signal by mean total phagocytosis spot intensity per cell, 2) total cell counts per well as the main measurement of cell viability, and 3) mean average nuclear intensity per cell as profiling of cell health since apoptotic cells showing nuclear intensity increase (early apoptosis) and decrease (later apoptosis), respectively. These measurements allow for evaluation of compound-induced phagocytosis (1) and cytotoxicity (2 and 3). Assays were carried out at a single concentration (10 μM). Idelalisib (10 μM) and cytochalasin-D (4 μM) were used as positive controls in the assay. All data, which was an average of 2 data points, was normalized to untreated wells and reported as % control, which is included in the Supporting Information both as a raw data file and summarized in the compound/gene-annotation file.

Series [4] relates to BV2 (mouse microglia) cell line. The series is described as above. Conditions: 48 hours treatment. Here is the method: as §5, §6, §7, §8
The mark [5] stands for this setting: HMC3, compound 10 uM, pHrodo-myelin.
[6] abbreviates: BV2, compound 10 uM, pHrodo-myelin.
The mark [7] stands for this setting: HMC3 cells, 10 uM compound, 48 hours treatment, pHrodo-myelin final 20 hours.
The mark [8] stands for this setting: BV2 cells, 10 uM compound, 48 hours treatment, pHrodo-myelin final 20 hours.

Structures are written as SMILES.

For the compound `CC(C)CCN1c2nc(Nc3cc(F)c(O)c(F)c3)ncc2N(C)C(=O)C1C` (stereo not shown) [UNC10302870A], the figures for the “4. Phagocytosis (% control)” value in series [1] (setting [5]) and in series [2] (setting [6]) were 178.1 % control and 123.8 % control, respectively. In addition, the “1. Cell count (% control)” value in series [3] (HMC3, compound 10 uM) is given as 49.2 % control; in series [4] (BV2, compound 10 uM), 15.1 % control. Further, the “2. Nuclear Area (% Control)” value in series [3] (HMC3, compound 10 uM) is recorded as 127.1 % Control; in series [4] (BV2, compound 10 uM) it was 106.7 % Control. Further, the “3. Nuclear DNA Intensity (% control)” value in series [3] (HMC3, compound 10 uM) came to 123.8 % control; in series [4] (BV2, compound 10 uM), 111.0 % control.
On to `COc1ccc(/C=C/C(=O)c2ccc(OC)cc2OC)cc1` [Metochalcone], for which the “Stimulation of mouse microglial phagocytosis at 10 μM (>150% control)” value (“Stimulation … (>150% control)” for short) in series [2] (BV2, 10 μM) is “Y (The compound was found to stimulate phagocytosis (response threshold: >150% control) when murine immortalized microglial cells were dosed at 10 μM (Y: yes))”. The “Human microglial cytotoxicity at 10 μM (<70% control)” value in series [3] (HMC3, 10 μM, cell count <70% control) was “Y (The compound was found to be cytotoxic (cell count threshold: <70% control) when human immortalized microglial cells were dosed at 10 μM (Y: yes))”.
Turning to `O=S(=O)(c1ccccc1)N(CC(F)(F)F)c1ccc(C(O)(C(F)(F)F)C(F)(F)F)cc1` [UNC10302875A], the “4. Phagocytosis (% control)” value in series [1] (setting [7]) amounted to 59.3 % control. Besides, the “4. Phagocytosis (% control)” value in series [2] (setting [8]) was 216.4 % control. Also, in series [3] (HMC3 cells, 10 uM compound), the “1. Cell count (% control)” value worked out at 121.7 % control, the “2. Nuclear Area (% Control)” value was found to be 100.6 % Control and the “3. Nuclear DNA Intensity (% control)” value is recorded as 97.9 % control. In series [4] (BV2 cells, 10 uM compound), the “1. Cell count (% control)” value was found to be 109.2 % control, the “2. Nuclear Area (% Control)” value is given as 107.3 % Control and the “3. Nuclear DNA Intensity (% control)” value is listed as 110.7 % control.
`CN(C)CC#Cc1ccc(OCCCc2sc(N3CCc4cccc(C(=O)Nc5nc6ccccc6s5)c4C3)nc2C(=O)O)c(F)c1` [UNC10302697A]: the entries for the “4. Phagocytosis (% control)” value in series [1] (setting [5]) and in series [2] (setting [6]) were 54.1 % control and 206.2 % control, respectively. Also, the “1. Cell count (% control)” value is given as 92.7 % control in series [3] (HMC3, compound 10 uM) and 84.3 % control in series [4] (BV2, compound 10 uM). In addition, the “2. Nuclear Area (% Control)” value in series [3] (HMC3, compound 10 uM) came to 89.5 % Control; in series [4] (BV2, compound 10 uM) it was 106.7 % Control. Further, the “3. Nuclear DNA Intensity (% control)” value in series [3] (HMC3, compound 10 uM) came out at 121.7 % control; in series [4] (BV2, compound 10 uM), 111.2 % control.
Regarding `Clc1ccc(N/N=C(\c2ccccc2)c2ccccn2)nc1` [UNC3735A], in series [1] (setting [7]), the “4. Phagocytosis (% control)” value amounted to 104.5 % control. Moreover, the “4. Phagocytosis (% control)” value in series [2] (setting [8]) stood at 273.4 % control. Besides, in series [3] (HMC3 cells, 10 uM compound), the “1. Cell count (% control)” value was found to be 86.4 % control, the “2. Nuclear Area (% Control)” value is listed as 86.7 % Control and the “3. Nuclear DNA Intensity (% control)” value was found to be 135.7 % control. In addition, in series [4] (BV2 cells, 10 uM compound), the “1. Cell count (% control)” value is 27.9 % control, the “2. Nuclear Area (% Control)” value was determined as 119.6 % Control and the “3. Nuclear DNA Intensity (% control)” value was determined as 94.7 % control.
`COc1cc(Nc2ncc(F)c(Nc3ccc4c(n3)N(COP(=O)([O-])[O-])C(=O)C(C)(C)O4)n2)cc(OC)c1OC.[Na+].[Na+]` [UNC10302863A]: the figures for the “4. Phagocytosis (% control)” value in series [1] (setting [7]) and in series [2] (setting [8]) were 201.3 % control and 0.00651 % control, respectively. Moreover, the “1. Cell count (% control)” value is reported as 80.8 % control in series [3] (HMC3 cells, 10 uM compound) and 16.5 % control in series [4] (BV2 cells, 10 uM compound). The “2. Nuclear Area (% Control)” value in series [3] (HMC3 cells, 10 uM compound) is recorded as 86.8 % Control; in series [4] (BV2 cells, 10 uM compound), 113.6 % Control. In addition, the “3. Nuclear DNA Intensity (% control)” value in series [3] (HMC3 cells, 10 uM compound) turned out to be 124.3 % control; in series [4] (BV2 cells, 10 uM compound), 22.9 % control.
In the case of `CCCCc1nc(Cl)c(CO)n1Cc1ccc(-c2ccccc2-c2nn[nH]n2)cc1` [UNC10121212D], the entries for the “4. Phagocytosis (% control)” value in series [1] (setting [7]) and in series [2] (setting [8]) were 86.3 % control and 120.9 % control, respectively. For the same compound, the “1. Cell count (% control)” value in series [3] (HMC3 cells, 10 uM compound) is 117.8 % control; in series [4] (BV2 cells, 10 uM compound), 142.4 % control. For the same compound, the “2. Nuclear Area (% Control)” value was 104.2 % Control in series [3] (HMC3 cells, 10 uM compound) and 103.1 % Control in series [4] (BV2 cells, 10 uM compound). The “3. Nuclear DNA Intensity (% control)” value in series [3] (HMC3 cells, 10 uM compound) is recorded as 96.6 % control; in series [4] (BV2 cells, 10 uM compound) it was 105.8 % control.
As to `CC(=O)c1nc([C@@H](O)[C@H](O)[C@H](O)CO)c[nH]1` [UNC10303188A], in series [1] (setting [5]), the “4. Phagocytosis (% control)” value came to 91.3 % control. In series [2] (setting [6]), the “4. Phagocytosis (% control)” value is given as 181.8 % control. In series [3] (HMC3, compound 10 uM), the “1. Cell count (% control)” value came to 133.0 % control, the “2. Nuclear Area (% Control)” value is given as 98.0 % Control and the “3. Nuclear DNA Intensity (% control)” value is 87.6 % control. In series [4] (BV2, compound 10 uM), the “1. Cell count (% control)” value turned out to be 136.1 % control, the “2. Nuclear Area (% Control)” value worked out at 102.5 % Control and the “3. Nuclear DNA Intensity (% control)” value came to 102.7 % control.
Take `O=C(NC12C[C@H]3C[C@@H](C1)C[C@@H](C2)C3)N[C@H]1CC[C@H](Oc2ccc(C(=O)O)cc2)CC1` [t-AUCB]: the “Stimulation … (>150% control)” value in series [2] (BV2, 10 μM) is recorded as “Y (The compound was found to stimulate phagocytosis (response threshold: >150% control) when murine immortalized microglial cells were dosed at 10 μM (Y: yes))”.
For `O=c1ccc2c(OCCCCOc3ccccc3)c3ccoc3cc2o1` [PAP-1 (5-(4-Phenoxybutoxy)psoralen)], in series [2] (10 μM, BV2), the “Stimulation … (>150% control)” value was “Y (The compound was found to stimulate phagocytosis (response threshold: >150% control) when murine immortalized microglial cells were dosed at 10 μM (Y: yes))”.
Consider `Cc1cc(O)cc2c1[C@]1(C)CC[C@H]3C(C)(C)CCC[C@]3(C)[C@H]1C2` [AQX-MN100], for which the “Stimulation … (>150% control)” value in series [2] (10 μM, BV2) is “Y (The compound was found to stimulate phagocytosis (response threshold: >150% control) when murine immortalized microglial cells were dosed at 10 μM (Y: yes))”.
Take `CC(C)CCOc1ccc(N)cc1` [UNC10302876A]: the entries for the “4. Phagocytosis (% control)” value in series [1] (setting [7]) and in series [2] (setting [8]) were 89.8 % control and 110.6 % control, respectively.
Turning to `O=C(NC12C[C@H]3C[C@@H](C1)C[C@@H](C2)C3)N[C@H]1CC[C@H](Oc2ccc(C(=O)O)cc2)CC1` [UNC10303108A], the entries for the “4. Phagocytosis (% control)” value in series [1] (setting [7]) and in series [2] (setting [8]) were 109.9 % control and 153.6 % control, respectively.
Consider `CC(=O)O.Cc1c(-c2ccc(O)cc2)n(Cc2ccc(OCCN3CCCCCC3)cc2)c2ccc(O)cc12` [UNC10245115A], for which the results for the “4. Phagocytosis (% control)” value in series [1] (setting [7]) and in series [2] (setting [8]) were 0.00872 % control and 0.00966 % control, respectively.
With `CC/C(=C(\c1ccccc1)c1ccc(OCCN(C)C)cc1)c1ccccc1` [Tamoxifen], the “Stimulation … (>150% control)” value in series [2] (BV2, 10 μM) is recorded as “Y (The compound was found to stimulate phagocytosis (response threshold: >150% control) when murine immortalized microglial cells were dosed at 10 μM (Y: yes))”.
With `O=c1ccc2c(OCCCCc3ccccc3)c3ccoc3cc2o1` [Psora-4 (5-(4-Phenylbutoxy)psoralen)], the “Inhibition of human microglial phagocytosis at 10 μM (<70% control)” value in series [1] (10 μM, HMC3) is given as “Y (The compound was found to inhibit phagocytosis (response threshold: <70% control) when human immortalized microglial cells were dosed at 10 μM (Y: yes))”. The “Stimulation … (>150% control)” value in series [2] (10 μM, BV2) was “Y (The compound was found to stimulate phagocytosis (response threshold: >150% control) when murine immortalized microglial cells were dosed at 10 μM (Y: yes))”.
